Test results: publication PMC3005981 (Basic & clinical pharmacology & toxicology, 2010)

Columns and labels:
CYP2C8 = assay: Methadone metabolism in cDNA-expressed CYP Supersomes, with abundance scaling
CYP2B6 = assay: as above
CYP2A6 = assay: as above
CYP2D6*1 = assay: as above
[1] = system: CYP3A (testosterone 6β-hydroxylation); assay: Correlation of EDDP formation with CYP-specific activity in 15 phenotyped HLMs; details: 15 HLMs; 750 ng/ml methadone, 0.5 mg/ml protein, 30 min; p<0.05
CYP3A4 [2] = assay: Methadone metabolism in cDNA-expressed CYP Supersomes, with abundance scaling
CYP2C19 = assay: as above
CYP2C9*1 = assay: as above
CYP1A2 = assay: as above
CYP2C18 = assay: as above; details: Abundance from Immunquantitation
[3] = most incubates; limit of detection approximately 1.0 ng/ml
CYP3A4/5 = assay: in vitro; details: human, microsomes, HLM
CYP3A4 [4] = molecular target: CYP3A4 (Homo sapiens, UniProt P08684); assay: in vitro; details: recombinant enzyme, Supersome
CYP3A4 (Homo sapiens, UniProt P08684), sequence (P08684 whole entry): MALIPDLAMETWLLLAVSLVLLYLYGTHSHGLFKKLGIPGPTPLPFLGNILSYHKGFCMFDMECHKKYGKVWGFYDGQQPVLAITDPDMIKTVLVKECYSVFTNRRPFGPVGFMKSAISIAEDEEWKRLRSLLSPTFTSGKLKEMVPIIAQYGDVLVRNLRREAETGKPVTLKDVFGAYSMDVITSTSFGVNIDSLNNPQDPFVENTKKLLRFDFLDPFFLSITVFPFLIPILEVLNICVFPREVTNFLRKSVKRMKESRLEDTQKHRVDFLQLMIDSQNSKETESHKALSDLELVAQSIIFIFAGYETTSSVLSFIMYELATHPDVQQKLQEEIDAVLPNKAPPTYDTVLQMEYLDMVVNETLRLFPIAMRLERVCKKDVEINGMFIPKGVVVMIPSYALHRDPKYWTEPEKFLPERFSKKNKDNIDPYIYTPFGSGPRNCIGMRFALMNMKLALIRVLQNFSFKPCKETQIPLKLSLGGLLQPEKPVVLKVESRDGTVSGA

CYP2D6 [5] = assay: Inhibition of methadone N-demethylation; details: human, microsomes, Inhibition of (R)- and (S)-EDDP formation, HLM with high CYP2D6 activity
CYP2D6 [6] = molecular target: CYP2D6 (Homo sapiens, UniProt P10635); assay: in vitro; details: recombinant enzyme
CYP2D6 (Homo sapiens, UniProt P10635), sequence (P10635 whole entry): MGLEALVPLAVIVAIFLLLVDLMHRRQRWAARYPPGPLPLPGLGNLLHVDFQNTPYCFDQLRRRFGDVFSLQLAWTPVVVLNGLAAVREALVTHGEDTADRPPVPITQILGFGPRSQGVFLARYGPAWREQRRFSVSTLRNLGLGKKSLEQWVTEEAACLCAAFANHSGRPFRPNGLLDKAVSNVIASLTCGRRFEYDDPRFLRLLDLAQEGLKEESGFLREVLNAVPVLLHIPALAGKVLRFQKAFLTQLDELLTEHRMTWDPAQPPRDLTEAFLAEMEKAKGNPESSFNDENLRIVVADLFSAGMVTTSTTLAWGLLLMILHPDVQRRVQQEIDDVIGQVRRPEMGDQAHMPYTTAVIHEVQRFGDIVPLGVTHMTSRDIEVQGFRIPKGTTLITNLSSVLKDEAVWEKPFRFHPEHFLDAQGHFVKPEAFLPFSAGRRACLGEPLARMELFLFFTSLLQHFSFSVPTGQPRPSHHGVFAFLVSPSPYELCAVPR

[7] = Abundance from Immunquantitation
[8] = Abundance from Relative Activity Factor
[9] = % Inhibition of (R)-EDDP production
[10] = % Inhibition of (S)-EDDP production

In the case of `CC=C1N(C)[C@H](C)CC1(c1ccccc1)c1ccccc1` [(R)-EDDP], the “Scaled contribution of CYP to formation of R- and S-EDDP” value (“Scaled contribution of CYP” for short) (CYP2C8; [7]) is reported as 0.4%, the “Scaled contribution of CYP” value (CYP2C8; [8]) is reported as 0.9% and the “Scaled contribution of CYP” value (CYP2B6; [7]) is reported as 11.5%. The “Scaled contribution of CYP” value (CYP2B6; [8]) was 17.8%, the “Scaled contribution of CYP” value (CYP2A6; [7]) was 0.0% and the “Scaled contribution of CYP” value (CYP2A6; [8]) was 0.0%. The “Scaled contribution of CYP” value (CYP2D6*1; [7]) was 1.0%, the “Scaled contribution of CYP” value (CYP2D6*1; [8]) was 0.5% and the “Correlation (r) of EDDP formation with testosterone 6β-hydroxylation catalyzed by CYP3A” value [1] was 0.82. The “Scaled contribution of CYP” value (CYP3A4 [2]; [7]) was 70.7%, the “Scaled contribution of CYP” value (CYP3A4 [2]; [8]) was 71.3% and the “Scaled contribution of CYP” value (CYP2C19; [7]) was 14.4%. For the same compound, the “Scaled contribution of CYP” value (CYP2C19; [8]) was 5.8%, the “Scaled contribution of CYP” value (CYP2C9*1; [7]) was 1.2% and the “Scaled contribution of CYP” value (CYP2C9*1; [8]) was 3.7%. For the same compound, the “Scaled contribution of CYP” value (CYP1A2; [7]) was 0.0%, the “Scaled contribution of CYP” value (CYP1A2; [8]) was 0.0% and the “Scaled contribution of CYP” value (CYP2C18) was 0.7%.

In the case of `CC=C1N(C)[C@@H](C)CC1(c1ccccc1)c1ccccc1` [(S)-EDDP], the “Scaled contribution of CYP” value (CYP2C8; [7]) is reported as 0.2%, the “Scaled contribution of CYP” value (CYP2C8; [8]) is reported as 0.4% and the “Scaled contribution of CYP” value (CYP2B6; [7]) is reported as 18.5%. For the same compound, the “Scaled contribution of CYP” value (CYP2B6; [8]) was 26.7%, the “Scaled contribution of CYP” value (CYP2A6; [7]) was 0.0% and the “Scaled contribution of CYP” value (CYP2A6; [8]) was 0.0%. The “Scaled contribution of CYP” value (CYP2D6*1; [7]) was 1.3%, the “Scaled contribution of CYP” value (CYP2D6*1; [8]) was 0.6% and the “Correlation (r) of EDDP formation with testosterone 6β-hydroxylation catalyzed by CYP3A” value [1] was 0.54. For the same compound, the “Scaled contribution of CYP” value (CYP3A4 [2]; [7]) was 74.3%, the “Scaled contribution of CYP” value (CYP3A4 [2]; [8]) was 69.6% and the “Scaled contribution of CYP” value (CYP2C19; [7]) was 4.4%. For the same compound, the “Scaled contribution of CYP” value (CYP2C19; [8]) was 1.6%, the “Scaled contribution of CYP” value (CYP2C9*1; [7]) was 0.4% and the “Scaled contribution of CYP” value (CYP2C9*1; [8]) was 1.1%. For the same compound, the “Scaled contribution of CYP” value (CYP1A2; [7]) was 0.0%, the “Scaled contribution of CYP” value (CYP1A2; [8]) was 0.0% and the “Scaled contribution of CYP” value (CYP2C18) was 0.9%.

In the case of `CCC1=NC(C)CC1(c1ccccc1)c1ccccc1` (stereo not drawn) [EMDP, 2-ethyl-5-methyl-3,3-diphenylpyraline], the “EMDP production from methadone” value [3] is reported as “no EMDP production was noted”.

For `NNC(=O)c1ccncc1` [Isoniazid, isoniazid], the inhibition at 15 min, 500 µM (CYP3A4/5; [9]) was 70.8%, the inhibition at 15 min, 500 µM (CYP3A4/5; [10]) was 51.4% and the inhibition at 15 min, 500 µM (CYP3A4 [4]; [9]) was 96.9%. The inhibition at 15 min, 500 µM (CYP3A4 [4]; [10]) was 96.9%.

In the case of `Fc1ccc([C@@H]2CCNC[C@H]2COc2ccc3c(c2)OCO3)cc1` [Paroxetine, paroxetine], the inhibition at 30 min, 1 µM (CYP2D6 [5]; 1 µM) is reported as < 30%, the inhibition at 30 min, 1 µM (CYP2D6 [6]; % Inhibition of (R)-EDDP production, Supersome) is reported as 9.9% and the inhibition at 30 min, 1 µM (CYP2D6 [6]; % Inhibition of (S)-EDDP production, Supersome) is reported as 7.6%. The inhibition at 30 min, 1 µM (CYP2D6 [6]; Inhibition of Supersome 2D6 activity) was < 30%.

With `C=C[C@H]1C[N@@]2CC[C@H]1C[C@@H]2[C@@H](O)c1ccnc2ccc(OC)cc12` [Quinidine, quinidine] the inhibition at 30 min, 10 µM (CYP2D6 [5]; 10 µM) was < 30%.

Work on `O=C(c1ccc(OCCN2CCCCC2)cc1)c1c(-c2ccc(O)cc2)sc2cc(O)ccc12` [Raloxifene, raloxifene] yielded an inhibition at 15 min, 30 µM (CYP3A4 [4]; [9]) of 96.8% and an inhibition at 15 min, 30 µM (CYP3A4 [4]; [10]) of 97.2%.
